The source of these data is the supplement of paper PMC10307832.

For one assay, the system named is EKVX. The assay is described as follows: relative viability (nuclei count vs DMSO), 5 days (fraction); higher = more cells survive. The settings on record: first compound 2.53 µM. In a few lines: (§1)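 Relative viability was taken as the ratio of nuclei in treated wells to nuclei in vehicle wells. Lung cancer cell lines in 1536-well plates received compounds by pin tool one day after seeding, either one drug alone or a fixed anchor-drug dose plus five library-drug doses (not always all listed) in √10 steps. Nuclei were counted on 4× images after 5 days of treatment, and values are medians of duplicate plates.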
The compound `CCCCCCCCCCCC1=C(O)C(=O)C=C(O)C1=O` [Embelin] + C[C@@H](Oc1cc(-c2cnn(C3CCNCC3)c2)cnc1N)c1c(Cl)ccc(F)c1Cl [Crizotinib] (partner 1 µM) gave a relative viability of 1.07.

The assay is the same for the next values; noted with them: first compound 8 µM.
Compound `CCCCCCCCCCCC1=C(O)C(=O)C=C(O)C1=O` [Embelin] + O=C(CCCCCCC(=O)Nc1ccccc1)NO [Vorinostat] (partner 1 µM) came in with a relative viability of 0.754.
`CCCCCCCCCCCC1=C(O)C(=O)C=C(O)C1=O` [Embelin] + C[C@]1(O)C[C@@H](c2nc(-c3ccc4ccc(-c5ccccc5)nc4c3)c3c(N)nccn32)C1 [Linsitinib] (partner 1 µM) had a relative viability of 1.06.
`CCCCCCCCCCCC1=C(O)C(=O)C=C(O)C1=O` [Embelin] + CC(C)C[C@H](NC(=O)[C@H](Cc1ccccc1)NC(=O)c1cnccn1)B(O)O [Bortezomib] (partner 0.002 µM): the relative viability was found to be 1.13.
Turning to `CCCCCCCCCCCC1=C(O)C(=O)C=C(O)C1=O` [Embelin] + CS(=O)(=O)CCNCc1ccc(-c2ccc3ncnc(Nc4ccc(OCc5cccc(F)c5)c(Cl)c4)c3c2)o1 [Lapatinib] (partner 2 µM), the relative viability is 0.211.
`CCCCCCCCCCCC1=C(O)C(=O)C=C(O)C1=O` [Embelin] + C[C@@H](Oc1cc(-c2cnn(C3CCNCC3)c2)cnc1N)c1c(Cl)ccc(F)c1Cl [Crizotinib] (partner 1 µM): the relative viability amounted to 1.07.

For the next assay, the system named is A-427. The assay is described as above. The settings on record: first compound 0.08 µM. The method, boiled down:
as §1
Compound `CCCCCCCCCCCC1=C(O)C(=O)C=C(O)C1=O` [Embelin] + O=C(CCCCCCC(=O)Nc1ccccc1)NO [Vorinostat] (partner 1 µM) registered a relative viability of 0.856.
`CCCCCCCCCCCC1=C(O)C(=O)C=C(O)C1=O` [Embelin] + C[C@]1(O)C[C@@H](c2nc(-c3ccc4ccc(-c5ccccc5)nc4c3)c3c(N)nccn32)C1 [Linsitinib] (partner 1 µM) came in with a relative viability of 1.11.
In the case of `CCCCCCCCCCCC1=C(O)C(=O)C=C(O)C1=O` [Embelin] + CC(C)C[C@H](NC(=O)[C@H](Cc1ccccc1)NC(=O)c1cnccn1)B(O)O [Bortezomib] (partner 0.002 µM), the relative viability was determined as 1.05.
In turn, `CCCCCCCCCCCC1=C(O)C(=O)C=C(O)C1=O` [Embelin] + CS(=O)(=O)CCNCc1ccc(-c2ccc3ncnc(Nc4ccc(OCc5cccc(F)c5)c(Cl)c4)c3c2)o1 [Lapatinib] (partner 2 µM) displayed a relative viability of 1.07.
Same read-out and setting: for `CCCCCCCCCCCC1=C(O)C(=O)C=C(O)C1=O` [Embelin] + C[C@@H](Oc1cc(-c2cnn(C3CCNCC3)c2)cnc1N)c1c(Cl)ccc(F)c1Cl [Crizotinib] (partner 1 µM) the value was 0.905.

Staying with this assay, now noted: first compound 0.8 µM.
On to `CCCCCCCCCCCC1=C(O)C(=O)C=C(O)C1=O` [Embelin] + O=C(CCCCCCC(=O)Nc1ccccc1)NO [Vorinostat] (partner 1 µM), for which the relative viability came out at 0.899.
The compound `CCCCCCCCCCCC1=C(O)C(=O)C=C(O)C1=O` [Embelin] + C[C@]1(O)C[C@@H](c2nc(-c3ccc4ccc(-c5ccccc5)nc4c3)c3c(N)nccn32)C1 [Linsitinib] (partner 1 µM) came in with a relative viability of 1.12.
Same read-out and setting: for `CCCCCCCCCCCC1=C(O)C(=O)C=C(O)C1=O` [Embelin] + CC(C)C[C@H](NC(=O)[C@H](Cc1ccccc1)NC(=O)c1cnccn1)B(O)O [Bortezomib] (partner 0.002 µM) the value was 1.11.
Take `CCCCCCCCCCCC1=C(O)C(=O)C=C(O)C1=O` [Embelin] + CS(=O)(=O)CCNCc1ccc(-c2ccc3ncnc(Nc4ccc(OCc5cccc(F)c5)c(Cl)c4)c3c2)o1 [Lapatinib] (partner 2 µM): the relative viability came out at 1.05.
`CCCCCCCCCCCC1=C(O)C(=O)C=C(O)C1=O` [Embelin] + C[C@@H](Oc1cc(-c2cnn(C3CCNCC3)c2)cnc1N)c1c(Cl)ccc(F)c1Cl [Crizotinib] (partner 1 µM) came in with a relative viability of 0.862.

Staying with this assay, now noted: first compound 2.53 µM.
With `CCCCCCCCCCCC1=C(O)C(=O)C=C(O)C1=O` [Embelin] + O=C(CCCCCCC(=O)Nc1ccccc1)NO [Vorinostat] (partner 1 µM), the relative viability turned out to be 0.88.
Same read-out and setting: for `CCCCCCCCCCCC1=C(O)C(=O)C=C(O)C1=O` [Embelin] + C[C@]1(O)C[C@@H](c2nc(-c3ccc4ccc(-c5ccccc5)nc4c3)c3c(N)nccn32)C1 [Linsitinib] (partner 1 µM) the value was 1.12.
On the same count and under the same terms, for `CCCCCCCCCCCC1=C(O)C(=O)C=C(O)C1=O` [Embelin] + CC(C)C[C@H](NC(=O)[C@H](Cc1ccccc1)NC(=O)c1cnccn1)B(O)O [Bortezomib] (partner 0.002 µM) the value was 0.978; for `CCCCCCCCCCCC1=C(O)C(=O)C=C(O)C1=O` [Embelin] + CS(=O)(=O)CCNCc1ccc(-c2ccc3ncnc(Nc4ccc(OCc5cccc(F)c5)c(Cl)c4)c3c2)o1 [Lapatinib] (partner 2 µM), 1.2.
On the same count and under the same terms, for `CCCCCCCCCCCC1=C(O)C(=O)C=C(O)C1=O` [Embelin] + C[C@@H](Oc1cc(-c2cnn(C3CCNCC3)c2)cnc1N)c1c(Cl)ccc(F)c1Cl [Crizotinib] (partner 1 µM) the value was 1.03.

The same assay, now with this note: first compound 8 µM.
Compound `CCCCCCCCCCCC1=C(O)C(=O)C=C(O)C1=O` [Embelin] + O=C(CCCCCCC(=O)Nc1ccccc1)NO [Vorinostat] (partner 1 µM) gave a relative viability of 0.441.
Compound `CCCCCCCCCCCC1=C(O)C(=O)C=C(O)C1=O` [Embelin] + C[C@]1(O)C[C@@H](c2nc(-c3ccc4ccc(-c5ccccc5)nc4c3)c3c(N)nccn32)C1 [Linsitinib] (partner 1 µM) had a relative viability of 1.09.
As for `CCCCCCCCCCCC1=C(O)C(=O)C=C(O)C1=O` [Embelin] + CC(C)C[C@H](NC(=O)[C@H](Cc1ccccc1)NC(=O)c1cnccn1)B(O)O [Bortezomib] (partner 0.002 µM), the relative viability is 0.904.
`CCCCCCCCCCCC1=C(O)C(=O)C=C(O)C1=O` [Embelin] + CS(=O)(=O)CCNCc1ccc(-c2ccc3ncnc(Nc4ccc(OCc5cccc(F)c5)c(Cl)c4)c3c2)o1 [Lapatinib] (partner 2 µM) registered a relative viability of 0.947.
Consider `CCCCCCCCCCCC1=C(O)C(=O)C=C(O)C1=O` [Embelin] + C[C@@H](Oc1cc(-c2cnn(C3CCNCC3)c2)cnc1N)c1c(Cl)ccc(F)c1Cl [Crizotinib] (partner 1 µM), for which the relative viability was 0.881.

The next assay concerns NCI-H596. Described as above. The settings on record: first compound 0.08 µM. In a few lines:
as §1
For the compound `CCCCCCCCCCCC1=C(O)C(=O)C=C(O)C1=O` [Embelin] + O=C(CCCCCCC(=O)Nc1ccccc1)NO [Vorinostat] (partner 1 µM), the relative viability is 0.56.
Compound `CCCCCCCCCCCC1=C(O)C(=O)C=C(O)C1=O` [Embelin] + C[C@]1(O)C[C@@H](c2nc(-c3ccc4ccc(-c5ccccc5)nc4c3)c3c(N)nccn32)C1 [Linsitinib] (partner 1 µM) yielded a relative viability of 1.11.
Compound `CCCCCCCCCCCC1=C(O)C(=O)C=C(O)C1=O` [Embelin] + CC(C)C[C@H](NC(=O)[C@H](Cc1ccccc1)NC(=O)c1cnccn1)B(O)O [Bortezomib] (partner 0.002 µM) gave a relative viability of 0.955.
